How the values were obtained:
galium = experiment: Test C pre-/postemergence herbicide test; format: in vivo, Galium aparine
Outline: (§1)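 Greenhouse plants scored visually against untreated controls 13–15 days after treatment, 0 = no effect, 100 = complete control. Test chemicals in a non-phytotoxic solvent with surfactant were applied either to soil (loam/sand) at planting or to foliage of 1- to 4-leaf plants, 2–18 cm tall.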

foxtail, giant = experiment: Test C pre-/postemergence herbicide test; format: in vivo, Setaria faberii
Outline: as §1

pigweed = experiment: Test A pre-/postemergence herbicide test; format: in vivo, Amaranthus retroflexus
Outline: (§2)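 Visual 0–100 ratings (100 = complete control) made about 10 days after treatment, greenhouse-held plants compared with untreated controls. Treatments: postemergence sprays on one- to two-leaf plants (2–10 cm tall) and preemergence directed soil sprays after planting in loam–sand, chemicals formulated in non-phytotoxic solvent containing surfactant.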

velvetleaf = experiment: Test C pre-/postemergence herbicide test; format: in vivo, Abutilon theophrasti
Outline: as §1

waterhemp = experiment: Test C pre-/postemergence herbicide test; format: in vivo, Amaranthus rudis
Outline: as §1

oat, wild = experiment: Test C pre-/postemergence herbicide test; format: in vivo, Avena fatua; settings: Postemergence
Outline: as §1

giant foxtail = experiment: Test A pre-/postemergence herbicide test; format: in vivo, Setaria faberii
Outline: as §2

morningglory = experiment: Test C pre-/postemergence herbicide test; format: in vivo, Ipomoea coccinea
Outline: as §1

barnyardgrass [1] = experiment: Test C pre-/postemergence herbicide test; format: in vivo, Echinochloa crus-galli
Outline: as §1

barnyardgrass [2] = experiment: Test A pre-/postemergence herbicide test; format: in vivo, Echinochloa crus-galli
Outline: as §2

lambsquarters = experiment: Test C pre-/postemergence herbicide test; format: in vivo, Chenopodium album
Outline: as §1

crabgrass, large = experiment: Test C pre-/postemergence herbicide test; format: in vivo, Digitaria sanguinalis
Outline: as §1

[3] = Postemergence, 16 g ai/ha, scale 0 to 100 (0 no effect, 100 complete control)
[4] = Postemergence, 31 g ai/ha, scale 0 to 100 (0 no effect, 100 complete control)
[5] = Postemergence, 62 g ai/ha, scale 0 (no effect) to 100 (complete control)
[6] = Postemergence, 125 g ai/ha, scale 0 to 100 (0 no effect, 100 complete control)
[7] = Preemergence, 31 g ai/ha, scale 0 to 100, 0 is no effect and 100 is complete control
[8] = Preemergence, 62 g ai/ha, scale 0 to 100 (0 no effect, 100 complete control)
[9] = Preemergence, 125 g ai/ha, scale 0 to 100 (0 no effect, 100 complete control)
[10] = Preemergence, 16 g ai/ha, scale 0 to 100
[11] = Postemergence, 500 g ai/ha, 0 to 100 scale (0 no effect, 100 complete control)
[12] = Preemergence, 125 g ai/ha, 0 to 100 scale where 0 is no effect and 100 is complete control
[13] = preemergence, 500 g ai/ha, 0 to 100 scale, 0 is no effect and 100 is complete control
[14] = Postemergence, 125 g ai/ha, 0 to 100 scale, 0 is no effect, 100 is complete control

`CN1CC(c2cccc(C(F)(F)F)c2)C(C(=O)Nc2ccccc2F)C1=O` (centres unmarked) [Compound 277] was tested, and the “Plant response rating, Galium” value (galium; [3]) was 40, the “Plant response rating, Galium” value (galium; [4]) was 45 and the “Plant response rating, Galium” value (galium; [5]) was 60. For the same compound, the “Plant response rating, Galium” value (galium; [6]) was 75, the “Galium plant response rating” value (galium; [7]) was 100 and the “Galium plant response rating” value (galium; [8]) was 90. The “Plant response rating, Galium” value (galium; [9]) was 100, the “Plant response rating, Galium” value (galium; [10]) was 0 and the “Plant response rating, Foxtail, Giant” value (foxtail, giant; [3]) was 0. For the same compound, the “Plant response rating, Foxtail, Giant” value (foxtail, giant; [4]) was 10, the “Plant response rating, Foxtail, Giant” value (foxtail, giant; [5]) was 85 and the “Plant response rating, Foxtail, Giant” value (foxtail, giant; [6]) was 85. The “Foxtail, Giant plant response rating” value (foxtail, giant; [7]) was 98, the “Foxtail, Giant plant response rating” value (foxtail, giant; [8]) was 98 and the “Plant response rating, Foxtail, Giant” value (foxtail, giant; [9]) was 98. The “Plant response rating, Foxtail, Giant” value (foxtail, giant; [10]) was 95, the “Plant response rating, Pigweed” value (pigweed; Postemergence, 125 g ai/ha, visual rating on 0 to 100 scale (0 no effect, 100 complete control), approx. 10 days) was 30 and the “Plant response rating, Pigweed” value (pigweed; [11]) was 30. For the same compound, the “Plant response rating, Pigweed” value (pigweed; [12]) was 20, the “Plant response rating, Pigweed” value (pigweed; [13]) was 30 and the “Plant response rating, Velvetleaf” value (velvetleaf; [3]) was 0. For the same compound, the “Plant response rating, Velvetleaf” value (velvetleaf; [4]) was 0, the “Plant response rating, Velvetleaf” value (velvetleaf; [5]) was 0 and the “Plant response rating, Velvetleaf” value (velvetleaf; [6]) was 15. The “Velvetleaf plant response rating” value (velvetleaf; [7]) was 0, the “Velvetleaf plant response rating” value (velvetleaf; [8]) was 0 and the “Plant response rating, Velvetleaf” value (velvetleaf; [9]) was 35. The “Plant response rating, Velvetleaf” value (velvetleaf; [10]) was 0, the “Plant response rating, Waterhemp” value (waterhemp; [3]) was 5 and the “Plant response rating, Waterhemp” value (waterhemp; [4]) was 5. The “Plant response rating, Waterhemp” value (waterhemp; [5]) was 5, the “Plant response rating, Waterhemp” value (waterhemp; [6]) was 5 and the “Waterhemp plant response rating” value (waterhemp; [7]) was 35. The “Waterhemp plant response rating” value (waterhemp; [8]) was 50, the “Plant response rating, Waterhemp” value (waterhemp; [9]) was 55 and the “Plant response rating, Waterhemp” value (waterhemp; [10]) was 0. The “Plant response rating, Oat, Wild” value (oat, wild; 16 g ai/ha, scale 0 to 100 (0 no effect, 100 complete control)) was 0, the “Plant response rating, Oat, Wild” value (oat, wild; 31 g ai/ha, scale 0 to 100 (0 no effect, 100 complete control)) was 0 and the “Plant response rating, Oat, Wild” value (oat, wild; 62 g ai/ha, scale 0 (no effect) to 100 (complete control)) was 0. The “Plant response rating, Oat, Wild” value (oat, wild; 125 g ai/ha, scale 0 to 100 (0 no effect, 100 complete control)) was 5, the “Plant response rating, Foxtail, Giant” value (giant foxtail; [14]) was 90 and the “Plant response rating, Foxtail, Giant” value (giant foxtail; [11]) was 90. The “Plant response rating, Foxtail, Giant” value (giant foxtail; [12]) was 90, the “Plant response rating, Foxtail, Giant” value (giant foxtail; [13]) was 90 and the “Plant response rating, Morningglory” value (morningglory; [3]) was 15. The “Plant response rating, Morningglory” value (morningglory; [4]) was 30, the “Plant response rating, Morningglory” value (morningglory; [5]) was 30 and the “Plant response rating, Morningglory” value (morningglory; [6]) was 40. The “Morningglory plant response rating” value (morningglory; [7]) was 0, the “Morningglory plant response rating” value (morningglory; [8]) was 0 and the “Plant response rating, Morningglory” value (morningglory; [9]) was 45. For the same compound, the “Plant response rating, Morningglory” value (morningglory; [10]) was 0, the “Plant response rating, Barnyardgrass” value (barnyardgrass [1]; [3]) was 5 and the “Plant response rating, Barnyardgrass” value (barnyardgrass [1]; [4]) was 15. The “Plant response rating, Barnyardgrass” value (barnyardgrass [1]; [5]) was 70, the “Plant response rating, Barnyardgrass” value (barnyardgrass [1]; [6]) was 80 and the “Barnyardgrass plant response rating” value (barnyardgrass [1]; [7]) was 95. The “Barnyardgrass plant response rating” value (barnyardgrass [1]; [8]) was 98, the “Plant response rating, Barnyardgrass” value (barnyardgrass [1]; [9]) was 98 and the “Plant response rating, Barnyardgrass” value (barnyardgrass [1]; [10]) was 95. For the same compound, the “Plant response rating, Barnyardgrass” value (barnyardgrass [2]; [14]) was 90, the “Plant response rating, Barnyardgrass” value (barnyardgrass [2]; [11]) was 90 and the “Plant response rating, Barnyardgrass” value (barnyardgrass [2]; [12]) was 90. The “Plant response rating, Barnyardgrass” value (barnyardgrass [2]; [13]) was 90, the “Plant response rating, Lambsquarters” value (lambsquarters; [3]) was 25 and the “Plant response rating, Lambsquarters” value (lambsquarters; [4]) was 30. For the same compound, the “Plant response rating, Lambsquarters” value (lambsquarters; [5]) was 40, the “Plant response rating, Lambsquarters” value (lambsquarters; [6]) was 40 and the “Lambsquarters plant response rating” value (lambsquarters; [7]) was 20. For the same compound, the “Lambsquarters plant response rating” value (lambsquarters; [8]) was 75, the “Plant response rating, Lambsquarters” value (lambsquarters; [9]) was 80 and the “Plant response rating, Lambsquarters” value (lambsquarters; [10]) was 0. For the same compound, the “Plant response rating, Crabgrass, Large” value (crabgrass, large; [3]) was 5, the “Plant response rating, Crabgrass, Large” value (crabgrass, large; [4]) was 15 and the “Plant response rating, Crabgrass, Large” value (crabgrass, large; [5]) was 65. For the same compound, the “Plant response rating, Crabgrass, Large” value (crabgrass, large; [6]) was 70, the “Crabgrass, Large plant response rating” value (crabgrass, large; [7]) was 98 and the “Crabgrass, Large plant response rating” value (crabgrass, large; [8]) was 100. The “Plant response rating, Crabgrass, Large” value (crabgrass, large; [9]) was 100 and the “Plant response rating, Crabgrass, Large” value (crabgrass, large; [10]) was 95.
